Measurements from paper PMC3853718 (Journal of Translational Medicine, 2013).

Test system: subjects with advanced malignancies
Experiment: Phase 1 dose escalation: toxicity, safety and tolerability (DLT, MAD, RP2D, AEs)
[1] = Dose level 0.33 mg/m^2, 1 subject
[2] = Dose level 0.66 mg/m^2, 1 subject
[3] = Dose level 1.32 mg/m^2, 1 subject
[4] = Dose level 2.59 mg/m^2, 4 subjects
[5] = Dose level 3.63 mg/m^2, 8 subjects
[6] = Dose level 5.08 mg/m^2, 3 subjects
[7] = Dose level 7.11 mg/m^2, 7 subjects
[8] = Dose level 10 mg/m^2, 3 subjects
[9] = Dose level 12 mg/m^2, 11 subjects

Method: Subjects continued on treatment until there was disease progression, unacceptable toxicity, or the subject withdrew consent. The trial employed an accelerated titration design [16] starting at a dose of 0.33 mg/m^2 (one-sixth of the highest nontoxic dose in dogs).
the dose was doubled in sequential subjects until a DLT was observed or a subject experienced grade 2 toxicity [16]. In the case of an observed grade 2 toxicity, a second subject was enrolled at the same dose level. If the second subject also experienced a grade 2 toxicity, 2 additional subjects were accrued at that dose level for a total of 4 subjects. […] Each subject was allocated to only a single dose level of drug. Dose delay or modification was permitted based on laboratory and clinical assessment performed on the day of treatment.
Dose-limiting toxicities were determined during the first cycle for each dose level. A DLT was defined as any grade 3 or 4 hematologic toxicity lasting for at least 1 week, or as any grade 3 or 4 nonhematologic toxicity. […] Normal alkaline phosphatase level (< grade 1) at screening that rose to greater than or equal to grade 3; grade 1 or 2 alkaline phosphatase level at screening that rose to grade 4; grade 1 or 2 aspartate aminotransferase (AST) and/or alanine aminotransferase (ALT) levels at screening that doubled from baseline to become greater than or equal to grade 3; and any other abnormal nonhematology laboratory value greater than or equal to grade 3 that required medical intervention to treat, led to hospitalization, or persisted for at least 1 week were also considered DLTs.
Adverse events were graded based on the National Cancer Institute Common Terminology Criteria for Adverse Events (NCI CTCAE version 3.0) and were coded using the Medical Dictionary for Regulatory Activities (MedDRA version 13.0).

SMILES: CCc1cnn2c(NCc3ccc[n+]([O-])c3)cc(N3CCCC[C@H]3CCO)nc12 [dinaciclib]
- TEAE: Abdominal distension (14 mg/m^2 (n = 5), Grade 3–4): 0 n (%)
- TEAE: Abdominal pain (14 mg/m^2 (n = 5), Grade 3–4): 0 n (%)
- TEAE: Anemia (14 mg/m^2 (n = 5), Grade 3–4): 1 (20) n (%)
- TEAE: Asthenia (14 mg/m^2 (n = 5), Grade 3–4): 1 (20) n (%)
- TEAE: Back pain (14 mg/m^2 (n = 5), Grade 3–4): 0 n (%)
- TEAE: Constipation (14 mg/m^2 (n = 5), Grade 3–4): 0 n (%)
- TEAE: Cough (14 mg/m^2 (n = 5), Grade 3–4): 0 n (%)
- TEAE: Decreased appetite (14 mg/m^2 (n = 5), Grade 3–4): 0 n (%)
- TEAE: Dehydration (14 mg/m^2 (n = 5), Grade 3–4): 0 n (%)
- TEAE: Diarrhea (14 mg/m^2 (n = 5), Grade 3–4): 0 n (%)
- TEAE: Dizziness (14 mg/m^2 (n = 5), Grade 3–4): 1 (20) n (%)
- TEAE: Dyspnea (14 mg/m^2 (n = 5), Grade 3–4): 1 (20) n (%)
- TEAE: Fatigue (14 mg/m^2 (n = 5), Grade 3–4): 0 n (%)
- TEAE: Flatulence (14 mg/m^2 (n = 5), Grade 3–4): 0 n (%)
- TEAE: Hyperbilirubinemia (14 mg/m^2 (n = 5), Grade 3–4): 1 (20) n (%)
- TEAE: Hyperglycemia (14 mg/m^2 (n = 5), Grade 3–4): 1 (20) n (%)
- TEAE: Hyperuricemia (14 mg/m^2 (n = 5), Grade 3–4): 1 (20) n (%)
- TEAE: Hypokalemia (14 mg/m^2 (n = 5), Grade 3–4): 0 n (%)
- TEAE: Hypophosphatemia (14 mg/m^2 (n = 5), Grade 3–4): 0 n (%)
- TEAE: Increased ALP (14 mg/m^2 (n = 5), Grade 3–4): 1 (20) n (%)
- TEAE: Increased ALT (14 mg/m^2 (n = 5), Grade 3–4): 0 n (%)
- TEAE: Increased AST (14 mg/m^2 (n = 5), Grade 3–4): 0 n (%)
- TEAE: Nausea (14 mg/m^2 (n = 5), Grade 3–4): 1 (20) n (%)
- TEAE: Neutropenia (14 mg/m^2 (n = 5), Grade 3–4): 2 (40) n (%)
- TEAE: Peripheral edema (14 mg/m^2 (n = 5), Grade 3–4): 0 n (%)
- TEAE: Pyrexia (14 mg/m^2 (n = 5), Grade 3–4): 0 n (%)
- TEAE: Subjects with any AE (14 mg/m^2 (n = 5), Grade 3–4): 5 (100) n (%)
- TEAE: Urinary tract infection (14 mg/m^2 (n = 5), Grade 3–4): 0 n (%)
- TEAE: Vomiting (14 mg/m^2 (n = 5), Grade 3–4): 1 (20) n (%)
- TEAE: Weight decreased (14 mg/m^2 (n = 5), Grade 3–4): 0 n (%)
- maximum administered dose (MAD) (2-hour IV infusion on days 1, 8, 15 of a 28-day cycle): 14 mg/m^2
- TEAE: Abdominal distension (All doses (N = 48), All grades): 5 (10) n (%)
- TEAE: Abdominal pain (All doses (N = 48), All grades): 8 (17) n (%)
- TEAE: Anemia (All doses (N = 48), All grades): 19 (40) n (%)
- TEAE: Asthenia (All doses (N = 48), All grades): 11 (23) n (%)
- TEAE: Back pain (All doses (N = 48), All grades): 11 (23) n (%)
- TEAE: Constipation (All doses (N = 48), All grades): 11 (23) n (%)
- TEAE: Cough (All doses (N = 48), All grades): 5 (10) n (%)
- TEAE: Decreased appetite (All doses (N = 48), All grades): 14 (29) n (%)
- TEAE: Diarrhea (All doses (N = 48), All grades): 6 (13) n (%)
- TEAE: Dizziness (All doses (N = 48), All grades): 5 (10) n (%)
- TEAE: Dyspnea (All doses (N = 48), All grades): 7 (15) n (%)
- TEAE: Fatigue (All doses (N = 48), All grades): 14 (29) n (%)
- TEAE: Flatulence (All doses (N = 48), All grades): 6 (13) n (%)
- TEAE: Hyperglycemia (All doses (N = 48), All grades): 7 (15) n (%)
- TEAE: Hyperuricemia (All doses (N = 48), All grades): 5 (10) n (%)
- TEAE: Hypokalemia (All doses (N = 48), All grades): 6 (13) n (%)
- TEAE: Hypophosphatemia (All doses (N = 48), All grades): 6 (13) n (%)
- TEAE: Increased ALP (All doses (N = 48), All grades): 8 (17) n (%)
- TEAE: Increased ALT (All doses (N = 48), All grades): 6 (13) n (%)
- TEAE: Increased AST (All doses (N = 48), All grades): 8 (17) n (%)
- TEAE: Nausea (All doses (N = 48), All grades): 19 (40) n (%)
- TEAE: Neutropenia (All doses (N = 48), All grades): 8 (17) n (%)
- TEAE: Peripheral edema (All doses (N = 48), All grades): 7 (15) n (%)
- TEAE: Pyrexia (All doses (N = 48), All grades): 8 (17) n (%)
- TEAE: Subjects with any AE (All doses (N = 48), All grades): 47 (98) n (%)
- TEAE: Urinary tract infection (All doses (N = 48), All grades): 12 (25) n (%)
- TEAE: Vomiting (All doses (N = 48), All grades): 11 (23) n (%)
- TEAE: Weight decreased (All doses (N = 48), All grades): 5 (10) n (%)
- TEAE: Abdominal distension (All doses (N = 48), Grade 3–4): 0 n (%)
- TEAE: Abdominal pain (All doses (N = 48), Grade 3–4): 2 (4) n (%)
- TEAE: Anemia (All doses (N = 48), Grade 3–4): 5 (10) n (%)
- TEAE: Asthenia (All doses (N = 48), Grade 3–4): 3 (6) n (%)
- TEAE: Back pain (All doses (N = 48), Grade 3–4): 3 (6) n (%)
- TEAE: Constipation (All doses (N = 48), Grade 3–4): 0 n (%)
- TEAE: Cough (All doses (N = 48), Grade 3–4): 0 n (%)
- TEAE: Decreased appetite (All doses (N = 48), Grade 3–4): 0 n (%)
- TEAE: Dehydration (All doses (N = 48), Grade 3–4): 0 n (%)
- TEAE: Diarrhea (All doses (N = 48), Grade 3–4): 0 n (%)
- TEAE: Dyspnea (All doses (N = 48), Grade 3–4): 3 (6) n (%)
- TEAE: Fatigue (All doses (N = 48), Grade 3–4): 2 (4) n (%)
- TEAE: Flatulence (All doses (N = 48), Grade 3–4): 0 n (%)
- TEAE: Hyperbilirubinemia (All doses (N = 48), Grade 3–4): 5 (10) n (%)
- TEAE: Hyperglycemia (All doses (N = 48), Grade 3–4): 4 (8) n (%)
- TEAE: Hyperuricemia (All doses (N = 48), Grade 3–4): 4 (8) n (%)
- TEAE: Hypokalemia (All doses (N = 48), Grade 3–4): 2 (4) n (%)
- TEAE: Hypophosphatemia (All doses (N = 48), Grade 3–4): 5 (10) n (%)
- TEAE: Increased ALP (All doses (N = 48), Grade 3–4): 2 (4) n (%)
- TEAE: Increased AST (All doses (N = 48), Grade 3–4): 2 (4) n (%)
- TEAE: Nausea (All doses (N = 48), Grade 3–4): 1 (2) n (%)
- TEAE: Neutropenia (All doses (N = 48), Grade 3–4): 5 (10) n (%)
- TEAE: Peripheral edema (All doses (N = 48), Grade 3–4): 0 n (%)
- TEAE: Pyrexia (All doses (N = 48), Grade 3–4): 0 n (%)
- TEAE: Subjects with any AE (All doses (N = 48), Grade 3–4): 29 (60) n (%)
- TEAE: Urinary tract infection (All doses (N = 48), Grade 3–4): 0 n (%)
- TEAE: Weight decreased (All doses (N = 48), Grade 3–4): 0 n (%)
- DLT [1]: None
- Subjects with DLT in cycle 1 [1]: 0
- DLT [2]: None
- Subjects with DLT in cycle 1 [2]: 0
- DLT [3]: None
- Subjects with DLT in cycle 1 [3]: 0
- DLT [4]: None
- Subjects with DLT in cycle 1 [4]: 0
- DLT [5]: Hypokalemia, hypocalcemia, hypophosphatemia
- Subjects with DLT in cycle 1 [5]: 1
- DLT [6]: None
- Subjects with DLT in cycle 1 [6]: 0
- DLT [7]: Deep vein thrombosis
- Subjects with DLT in cycle 1 [7]: 1
- DLT [8]: None
- Subjects with DLT in cycle 1 [8]: 0
- DLT [9]: Septic shock
- Subjects with DLT in cycle 1 [9]: 1
- DLT (Dose level 14 mg/m^2, 5 subjects): Orthostatic hypotension (1), elevated uric acid (1)
